PubChem BioAssay AID1259407 (Chemical Carcinogenesis Research Information System (CCRIS), 2018)
The source made the active and inactive calls. No rule for the calls is given here.

System: CCRIS mutagenicity, Ames/micronucleus/aberration tests
Test: CCRIS mutagenicity studies
[1] = Test System: AMES SALMONELLA TYPHIMURIUM, Strain/Indicator: TA98, Metabolic Activation: NONE, Method: STANDARD PLATE

For `COc1cc(NC(C)CCCN)c2ncccc2c1` (centres undefined), the mutagenic call (Test System: AMES SALMONELLA TYPHIMURIUM, Strain/Indicator: TA97, Metabolic Activation: NONE, Method: PREINCUBATION) was “active; positive”, the mutagenic call (Test System: AMES SALMONELLA TYPHIMURIUM, Strain/Indicator: TA97, Metabolic Activation: RAT, LIVER, S-9, PHENOBARBITAL AND BETA-NAPHTHOFLAVONE, Method: PREINCUBATION) was “active; positive” and the mutagenic call (Test System: AMES SALMONELLA TYPHIMURIUM, Strain/Indicator: TA97A, Metabolic Activation: NONE, Method: STANDARD PLATE) was “inactive; negative”. The mutagenic call (Test System: AMES SALMONELLA TYPHIMURIUM, Strain/Indicator: TA97A, Metabolic Activation: RAT LIVER S-9, PHENOBARBITAL, Method: STANDARD PLATE) was “inactive; negative”, the mutagenic call (Test System: AMES SALMONELLA TYPHIMURIUM, Strain/Indicator: TA98, Metabolic Activation: NONE, Method: PREINCUBATION) was “inactive; negative” and the mutagenic call [1] was “active; positive”. For the same compound, the mutagenic call (Test System: AMES SALMONELLA TYPHIMURIUM, Strain/Indicator: TA98, Metabolic Activation: RAT, LIVER, S-9, AROCLOR 1254 OR PHENOBARBITOL, Method: STANDARD PLATE) was “active; positive”, the mutagenic call (Test System: AMES SALMONELLA TYPHIMURIUM, Strain/Indicator: TA98, Metabolic Activation: RAT, LIVER, S-9, PHENOBARBITAL AND BETA-NAPHTHOFLAVONE, Method: PREINCUBATION) was “inactive; negative” and the mutagenic call (Test System: AMES SALMONELLA TYPHIMURIUM, Strain/Indicator: TA98, Metabolic Activation: RAT, LIVER, S-9, Method: PREINCUBATION) was “inactive; negative”. For the same compound, the mutagenic call (Test System: AMES SALMONELLA TYPHIMURIUM, Strain/Indicator: TA100, Metabolic Activation: NONE, Method: PREINCUBATION) was “inactive; negative”, the mutagenic call (Test System: AMES SALMONELLA TYPHIMURIUM, Strain/Indicator: TA100, Metabolic Activation: RAT LIVER S-9, PHENOBARBITAL, Method: STANDARD PLATE) was “inactive; negative” and the mutagenic call (Test System: AMES SALMONELLA TYPHIMURIUM, Strain/Indicator: TA100, Metabolic Activation: RAT, LIVER, S-9, AROCLOR 1254 OR PHENOBARBITOL, Method: STANDARD PLATE) was “active; positive”. The mutagenic call (Test System: AMES SALMONELLA TYPHIMURIUM, Strain/Indicator: TA100, Metabolic Activation: RAT, LIVER, S-9, PHENOBARBITAL AND BETA-NAPHTHOFLAVONE, Method: PREINCUBATION) was “inactive; negative”, the mutagenic call (Test System: AMES SALMONELLA TYPHIMURIUM, Strain/Indicator: TA100, Metabolic Activation: RAT, LIVER, S-9, Method: PREINCUBATION) was “inactive; negative” and the mutagenic call (Test System: AMES SALMONELLA TYPHIMURIUM, Strain/Indicator: TA102, Metabolic Activation: NONE, Method: PREINCUBATION) was “inactive; negative”. For the same compound, the mutagenic call (Test System: AMES SALMONELLA TYPHIMURIUM, Strain/Indicator: TA102, Metabolic Activation: NONE, Method: STANDARD PLATE) was “inactive; negative”, the mutagenic call (Test System: AMES SALMONELLA TYPHIMURIUM, Strain/Indicator: TA102, Metabolic Activation: RAT LIVER S-9, PHENOBARBITAL, Method: STANDARD PLATE) was “inactive; negative” and the mutagenic call (Test System: AMES SALMONELLA TYPHIMURIUM, Strain/Indicator: TA102, Metabolic Activation: RAT, LIVER, S-9, PHENOBARBITAL AND BETA-NAPHTHOFLAVONE, Method: PREINCUBATION) was “inactive; negative”. For the same compound, the mutagenic call (Test System: AMES SALMONELLA TYPHIMURIUM, Strain/Indicator: TA104, Metabolic Activation: NONE, Method: STANDARD PLATE) was “inactive; negative”, the mutagenic call (Test System: AMES SALMONELLA TYPHIMURIUM, Strain/Indicator: TA104, Metabolic Activation: RAT LIVER S-9, PHENOBARBITAL, Method: STANDARD PLATE) was “inactive; negative” and the mutagenic call (Test System: AMES SALMONELLA TYPHIMURIUM, Strain/Indicator: TA1535, Metabolic Activation: NONE, Method: STANDARD PLATE) was “inactive; negative”. For the same compound, the mutagenic call (Test System: AMES SALMONELLA TYPHIMURIUM, Strain/Indicator: TA1535, Metabolic Activation: RAT, LIVER, S-9, AROCLOR 1254 OR PHENOBARBITOL, Method: STANDARD PLATE) was “inactive; negative”, the mutagenic call (Test System: AMES SALMONELLA TYPHIMURIUM, Strain/Indicator: TA1537, Metabolic Activation: NONE, Method: PREINCUBATION) was “active; positive” and the mutagenic call (Test System: AMES SALMONELLA TYPHIMURIUM, Strain/Indicator: TA1537, Metabolic Activation: NONE, Method: STANDARD PLATE) was “inactive; negative”. For the same compound, the mutagenic call (Test System: AMES SALMONELLA TYPHIMURIUM, Strain/Indicator: TA1537, Metabolic Activation: RAT, LIVER, S-9, AROCLOR 1254, Method: PREINCUBATION) was “active; positive”, the mutagenic call (Test System: AMES SALMONELLA TYPHIMURIUM, Strain/Indicator: TA1537, Metabolic Activation: RAT, LIVER, S-9, AROCLOR 1254, Method: STANDARD PLATE) was “active; positive” and the mutagenic call (Test System: AMES SALMONELLA TYPHIMURIUM, Strain/Indicator: TA1537, Metabolic Activation: RAT, LIVER, S-9, AROCLOR 1254 OR PHENOBARBITOL, Method: STANDARD PLATE) was “inactive; negative”. For the same compound, the mutagenic call (Test System: AMES SALMONELLA TYPHIMURIUM, Strain/Indicator: TA1538, Metabolic Activation: NONE, Method: STANDARD PLATE) was “inactive; negative”, the mutagenic call (Test System: AMES SALMONELLA TYPHIMURIUM, Strain/Indicator: TA1538, Metabolic Activation: RAT, LIVER, S-9, AROCLOR 1254 OR PHENOBARBITOL, Method: STANDARD PLATE) was “inactive; negative” and the mutagenic call (Test System: E.COLI, Strain/Indicator: WP2UVRA/PKM101, Metabolic Activation: NONE, Method: PREINCUBATION) was “inactive; negative”. The mutagenic call (Test System: E.COLI, Strain/Indicator: WP2UVRA/PKM101, Metabolic Activation: RAT LIVER S-9, PHENOBARBITAL AND 5,6-BENZOFLAVONE, Method: PREINCUBATION) was “inactive; negative”.
For `Cc1ccc(O)cc1`, the mutagenic call (Test System: Ames Salmonella typhimurium, Strain/Indicator: TA98, Metabolic Activation: Hamster, Liver, S-9, Aroclor 1254 (10%), Method: Preincubation) was “inactive; negative”, the mutagenic call (Test System: Ames Salmonella typhimurium, Strain/Indicator: TA98, Metabolic Activation: None, Method: Preincubation) was “inactive; negative” and the mutagenic call (Test System: Ames Salmonella typhimurium, Strain/Indicator: TA98, Metabolic Activation: Rat, Liver, S-9, Aroclor 1254 (10%), Method: Preincubation) was “inactive; negative”. The mutagenic call (Test System: Ames Salmonella typhimurium, Strain/Indicator: TA100, Metabolic Activation: Rat, Liver, S-9, Aroclor 1254 (10%), Method: Preincubation) was “inactive; negative”, the mutagenic call (Test System: Ames Salmonella typhimurium, Strain/Indicator: TA1535, Metabolic Activation: Rat, Liver, S-9, Aroclor 1254 (10%), Method: Preincubation) was “inactive; negative” and the mutagenic call (Test System: Ames Salmonella typhimurium, Strain/Indicator: TA1537, Metabolic Activation: Rat, Liver, S-9, Aroclor 1254 (10%), Method: Preincubation) was “inactive; negative”.
With `Nc1ccc(Sc2ccc([N+](=O)[O-])cc2)cc1` the mutagenic call [1] was “active; positive” and the mutagenic call (Test System: AMES SALMONELLA TYPHIMURIUM, Strain/Indicator: TA98, Metabolic Activation: RAT, LIVER, S-9, AROCLOR 1254, Method: STANDARD PLATE) was “active; positive”.
